How the values were obtained:
[1] = tested on: Human B Lymphocyte cell line, SU-DHL-8; assay: Relative cell viability, CCK-8, SU-DHL-8; type: cell-based; details: 48 hours
Procedure: Human-derived B lymphoma cell line SU-DHL-8 (Cat. #CRL-2961) purchased from ATCC was cultured in RPMI-1640 medium containing 10% FBS, 100 U/mL penicillin, and 100 μg/mL streptomycin.
The cell culture medium was then harvested, centrifuged at 1,300 rpm for 5 minutes, and the supernatant was removed. The cells were resuspended in the same medium and dispensed into a 96-well plate (Costar 96-well cell culture plate, Corning) at 90 μL per well, resulting in the conditions specified in Table 5.
Then, 10 μL of CCK-8 was added to each well, and the plates were incubated again at 37° C. in a 5% CO2 incubator for 4 hours.
(§1) In other words, when the survival rate of untreated cells (DMSO) is set at 100%, the relative cell survival rate in each group treated with the drug at different concentrations is indicated.

[2] = tested on: Human Melanoma cancer cell, Malme-3M; assay: Relative cell viability, CCK-8, Malme-3M; type: cell-based; details: 48 hours
Procedure: Human-derived breast cancer cell line MCF-7, human-derived lung cancer cell line A549, human-derived colorectal cancer cell line HCT-116, human pancreatic cancer cell line AsPC-1, glioblastoma cell line A172, and melanoma cell line Malme-3M were obtained from the Korean Cell Bank. gastric cancer cell line SNU-719, and bladder cancer cell line T24 were cultured in RPMI-1640 medium containing 10% FBS.
Following stabilization, the cells were harvested using Trypsin-EDTA treatment, centrifuged at 1,200 rpm for 3 minutes, the supernatant was removed, and the cells were resuspended in the same medium. They were then seeded into a 96-well plate (Costar 96-well cell culture plate, Corning) at 100 μL per well, and the conditions were adjusted as indicated in Table 5.
The cells were cultured in a 5% CO2 incubator at 37° C. for 24 hours, and after stabilization of the cells, each plate was washed with 200 μL of PBS per well and treated with 50 μL of culture medium per well.
After that, 10 μL of CCK-8 was added to each well, and the plate was incubated again at 37° C. in a 5% CO2 incubator for 2 hours.
as §1

[3] = target: T1, full-length (PDK1-FL) protein of human-derived PDK1 (Homo sapiens, UniProt O15530); assay: Microscale Thermophoresis (MST) binding, full-length PDK1; details: Kd ratio
T1 construct: the full-length (PDK1-FL) protein of human-derived PDK1; inferred from the Ni-NTA purification; made in house; host or cells: Sf9 insect cells, baculovirus
T1 sequence (O15530 1-556): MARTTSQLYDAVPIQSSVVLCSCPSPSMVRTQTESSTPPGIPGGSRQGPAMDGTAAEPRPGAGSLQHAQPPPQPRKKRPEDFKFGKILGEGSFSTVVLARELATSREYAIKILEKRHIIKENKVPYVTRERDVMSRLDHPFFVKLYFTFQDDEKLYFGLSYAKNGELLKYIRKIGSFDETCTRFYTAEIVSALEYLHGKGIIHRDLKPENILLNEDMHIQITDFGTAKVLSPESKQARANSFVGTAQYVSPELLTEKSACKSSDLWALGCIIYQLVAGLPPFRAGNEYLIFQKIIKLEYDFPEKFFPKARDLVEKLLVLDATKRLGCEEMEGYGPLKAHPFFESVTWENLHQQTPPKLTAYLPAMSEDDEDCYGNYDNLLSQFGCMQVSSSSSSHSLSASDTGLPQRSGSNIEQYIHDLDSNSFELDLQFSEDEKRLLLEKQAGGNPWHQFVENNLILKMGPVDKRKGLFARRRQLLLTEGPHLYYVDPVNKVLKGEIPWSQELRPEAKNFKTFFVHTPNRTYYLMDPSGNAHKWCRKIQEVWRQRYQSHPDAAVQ
Procedure: Microscale Thermophoresis (MST) analysis was performed to quantitatively measure the binding affinity between PDK1 protein and substrate peptides (PDKTide) or the company-developed low-molecular-weight compound (GO88).
The target proteins were the full-length (PDK1-FL) protein of human-derived PDK1 and the Protein Kinase Domain (PKD) fragment, which were expressed using a baculovirus expression system in insect cell lines (Sf9).
The purity of the purified proteins was confirmed by SDS-PAGE and Coomassie Brilliant Blue staining.
The purified protein was labeled with a fluorescent label using the Monolith NT™ RED-NHS Protein Fluorescent Labeling Kit (NanoTemper).
Specifically, 20 μM of the protein was dissolved in PBS (pH 7.4) buffer, mixed with the fluorescent reagent, and reacted at room temperature under dark conditions for 30 minutes. The mixture was then buffered with MST analysis buffer (50 mM HEPES, 150 mM NaCl, 1 mM DTT, 0.05% Tween-20, pH 7.5). […]
The reaction samples were injected into an MST-specific capillary (NanoTemper) and analyzed using a Monolith NT.115 device (NanoTemper) under laser intensity conditions. […]
The measured data were analyzed using MO.Affinity Analysis software (NanoTemper), and the dissociation constant (Kd) was calculated from the binding curve.

In the case of `CC1(C)CN(CCCCCCCCCCCCC(=O)Nc2nc(N)c3[nH]cnc3n2)CCO1` [Compound 11, 12-[4-(2,2-dimethylmorpholin-4-yl)]dodecyl-N-(6-aminopurine-2-yl)carboxamide], the “Relative cell viability (%)” value ([1]; SU-DHL-8, 1 μM) is reported as 7.63%, the “Relative cell viability (%)” value ([1]; SU-DHL-8, 10 μM) is reported as 6.09% and the “Relative cell viability (%)” value ([1]; SU-DHL-8, 30 μM) is reported as 4.82%. For the same molecule, the “Relative cell viability (%)” value ([1]; SU-DHL-8, 50 μM) was 3.29%, the “Relative cell viability (%)” value ([2]; 1 μM) was 44.06% and the “Relative cell viability (%)” value ([2]; 10 μM) was 37.40%. The “Relative cell viability (%)” value ([2]; 30 μM) was 36.80% and the “Relative cell viability (%)” value ([2]; 50 μM) was 38.87%.
For `Nc1ncccc1C(=O)NCCCCCCCCCCCCN1CCNCC1` [Compound 14, 2-Amino-N-(12-(piperazin-1-yl)dodecyl)nicotinamide], the “binding affinity of full-length PDK1 compared to the PDK fragment” value [3] was “six times stronger binding affinity”.
